Patent US9062095B2, “Mutant double cyclized receptor peptides inhibiting β1-adrenoceptor antibodies” (JULIUS-MAXIMILIANS-UNIVERSTITAT-WURZBURG, priority 2007, dated 2015)
Positions of bridges follow the written chain, without caps; N, C: chain ends. Non-standard residues stand in square brackets, D forms with d.

Key:
anti-β1-ECII antibodies = test: ELISA-competition assay: peptide preincubated with sera/IgG of immunized antibody-positive rats, linear 25AA Cys/Cys-peptide as antigen; assay type: binding, rat; design: blocking capacity (% of blocked versus non-blocked ELISA-reactivity): concentration or dose not given beside the values; conditions: for blocking capacity (% of blocked versus non-blocked ELISA-reactivity): IgG from n=78 immunized antibody-positive rats, preincubation 12 h, mutants with D-Glu ring closure (FIG. 7); for blocking capacity (% of blocked versus non-blocked ELISA-reactivity) / blocking efficiency (% of blocked versus non-blocked ELISA reactivity) / blocking capacity (% of blocked versus non-blocked ELISA reactivity): ±SEM; for blocking efficiency (% of blocked versus non-blocked ELISA reactivity): type1 sera (93%, n=64 of 69), FIG. 9 upper panel; for blocking capacity (% of blocked versus non-blocked ELISA reactivity): type 2 sera (7%, n=5 of 69), FIG. 9 lower panel; for decrease in circulating free anti-beta1-ECII antibodies: n=6 sera (FIG. 11); for ability to significantly block antibody-binding to the β1-ECII-antigen: IgG-fractions from 12 rats, 18AA mutants with D-Glu ring closure (FIG. 4); for fraction of rat sera blocked by the peptide: n=82 sera, D-Glu ring closure (FIG. 8), Cys/Ser = blocked by it alone, Ser/Cys = sera blocked by both mutants
Method: FIG. 9 is a diagram composed of two major-(upper and lower) panels resuming the blocking effect of both 25AA- and 18AA-cyclopeptide mutants having a Gln closure site, as well as 18AA cyclopeptide mutants having a D-Glu closure site after preincubation (12 h, 4° C., rotating incubation) with sera isolated from 69 different immunized antibody-positive rats in an ELISA-competition assay using the 3 Cys-containing linear 25AA Cys/Cys-peptide as an antigen. The upper panel depicts rat sera preferentially reacting with the Cys/Ser mutated cyclopeptides (type1 reaction, n=64), separated in cyc25AA(Gln)-peptides (left) and cyc18AA(Gln and D-Glu)-peptides (right). The lower panel depicts the rat sera reacting with both the Cys/Ser and the Ser/Cys mutated cyclopeptides (type2 reaction, n=5), again separated in the results obtained with cyc25AA(Gln)-peptides (left) and cyc18AA(Gln and D-Glu)-peptides (right).
FIG. 11 is a diagram resuming the dose-dependent (x-axis, abscissa: fold molar excess of specific peptides) blocking capacity of various linear and cyclic beta1-ECII-peptides given in % of the unblocked antibody-titer (y-axis, ordinate), including 25AA Cys/Cys linear peptides (black squares), 25AA Cys/Ser cyclopeptide mutants (white squares), 18AA Cys/Cys cyclo-peptides (black diamonds), 18AA Cys/Ser cyclopeptide mutants (white diamonds), and 18AA Cys/Ser linear peptide mutants (vertically hatched diamonds) in an ELISA competition assay performed with sera from n=6 randomly chosen immunized antibody-positive rats.
FIGS. 27A and B depict the in vitro blocking (=neutralization) capacity of various cysteine-containing cyclopeptide variants of the second extracellular loop (ECII) of the human beta1-adrenergic receptor, determined by testing n=6 individual sera (27A) of immunized beta1-ECII-antibody-positive rats after over-night incubation with the indicated cyclopeptides (12-14 h, 4° C.) by ELISA. Columns in 27A represent the receptor-antibody blocking efficiency of the indicated cyclopeptides in % of the antibody-(ELISA-)signals obtained with unblocked antibody-positive rat sera. Columns in 27B represent the mean blocking efficiency for each cyclopeptide, error bars indicate ±SEM.
The blocking capacity of β1-ECII-18AA cyclopeptide mutants (Cys13-Ser14 or Ser13-Cys14 mutation having an additional D-Glu-Gln exchange, e.g. at the ring closure site) was compared with the 3 Cys-containing 25AA or 18AA Cys/Cys cyclopeptides after preincubation (12 h, 4° C., rotating incubation over-night) of different numbers of sera from immunized antibody-positive rats in an ELISA-competition assay using the 3 Cys-containing linear 25AA Cys/Cys-peptide as an antigen. FIGS. 4, 5, and 7-10 show the results from measurements performed with sera of n=12 up to n=82 immunized antibody-positive rats using different cyclopeptides of the present invention.

[1] = tested on: beta1-receptor antibodies; test: in vivo prevention study: five prophylactic peptide applications, serum antibody-titers by ELISA; design: species or system rat; conditions: 1.0 mg/kg body weight i.v., 4-weekly, prevention protocol (FIG. 12)
Method: FIG. 12 is a diagram resuming the in vivo blocking capacity of in total five (prophylatic) applications of various linear and cyclic beta1-ECII-peptides, started 3 months after the first immunization (and two subsequent beta1-ECII/GST-antigen-boosts, corresponding to a prevention protocol). Serum-titers of the beta1-receptor antibodies were determined before and 18-20 h after each peptide injection (abscissa, time in months) and are given in % of the corresponding antibody-titers of immunized untreated rats (y-axis, ordinate). The injected peptides were: 25AA Cys/Cys linear peptide (black squares), […] (white squares), 18AA Cys/Cys cyclopeptide (black diamond), 18AA Cys/Ser cyclopeptide mutant (white diamonds), and the 18AA Cys/Ser linear peptide mutant (vertically hatched diamonds). […] Black circles indicate antibody-titers of untreated regularly (every 4 weeks) immunized animals serving as reference, set at 100%.
The in-vivo blocking effects of both 25AA and 18AA Cys/Ser mutant cyclopeptides (with a Gln closure site), the 18AA Ser/Cys mutant cyclopeptide, and a mutated linear 18AA Cys/Ser peptide were analyzed after intravenous (i.v.) injection of 1.0 mg/kg body weight (Bw) of each construct into freshly immunized antibody-positive rats (i.e., use of cyclo-peptides in a kind of “prevention” study), with a first cyclopeptide-application 3 months after the initial immunization (and two subsequent boost at months 2 and 3). In total, five prophylactic applications of the various constructs were given at 4-weekly intervals, always two weeks after the monthly continued antigen boost. Sera were drawn 18-20 hours after i.v. injection and assayed for reactivity by ELISA using the 3 Cys-containing linear 25AA Cys/Cys-peptide as an antigen (FIG. 12).

[2] = tested on: anti-beta1-ECII antibody-secreting cells (ASC); test: ELISPOT-assay with B-cells from bone marrow or spleen of prophylactically treated rats; assay type: in vivo, rat; conditions: prophylactically treated versus untreated immunized rats, n=3-4 (FIG. 13)
Method: Cys/Ser, horizontally hatched columns). For the assays, ELIspot plates were coated overnight with the specific antigen (GST/beta1-ECII-FP) in 0.05 mol/1 Tris buffer, pH 9.4.; then the plates were washed 3 times and blocked with BSA for 3 hours at 37° C. Subsequently, the plates were incubated overnight at 37° C. with B-cells from either spleen or bone marrow (cultured in RPMI 1640/X-VIVO-15 medium supplemented with 10% fetal calf serum (FCS)) with 1×10^6 to 1×10^3 cells per well. After 12 hours the B-cells were discarded and the plates with the B-cell secreted IgG bound were washed several times (PBS/0.5° A) Tween) before the addition of alkaline phos-phatase conjugated secondary anti-rat IgG (0.3 μg/ml) to detect bound rat IgG. Then the plates were incubated for another 3 hours at 37° C., washed several times with PBS/0.5% Tween, and developed using LMP/BICP 5:1 (1 ml per well; “LMP” means low melting agarose, and “BICP” means 5-bromo-4-chloro-3-indolyl phosphate p-toluidine salt, a blue-colored dye) allowing for a quantification of the blue spots obtained, with each spot representing an antigen-specific IgG secreting spleen or bone-marrow cell.
This finding was confirmed by ELIspot analysis of bone marrow and spleen cell preparations of selected cyclopeptide-treated versus untreated immunized rats (n=3).

[3] = tested on: antibody-induced cellular cAMP-production of HEK 293-β1 cells (β1-receptor-mediated signalling); test: functional cAMP-assay by fluorescence resonance energy transfer (FRET); assay type: cell-based, human; conditions: anti-β1-ECII IgG of a representative rat, preincubation 12 h, 4° C. (FIG. 6)
Method: FIG. 6 is a diagram depicting the blocking capacity of β1-ECII-18AA cyclopeptide mutants having a D-Glu ring closure on β1-receptor-mediated signalling (functional cAMP-assay) using an approach by fluorescence resonance energy transfer (FRET). The effect of the preincubation (12 h, 4° C., rotating incubator) of anti-β1-ECII IgG antibodies of a representative rat (serum) (FIG. 4, rat number 4) with β1-ECII-18AA-cyclopeptide mutants (Cys/Ser mutation, dark blue (3); Ser/Cys mutation, light blue (4)) was compared with the effect of a 3 Cys-containing 25AA Cys/Cys cyclopeptide (red (2)) or the result obtained with anti-β1-ECII IgG antibodies in the absence of blocking peptides (black (1)). The y-axis represents the normalized YFP/CFP-ratio of the registered FRET emission signals, the x-axis corresponds to the registration time given in seconds (s).
The blocking capacity of β1-ECII 25AA or 18AA cyclopeptide mutants (having a D-Glu/Gln at the ring closure site or not) on β1-receptor-mediated signalling (functional cAMP-assay) was assayed using an approach by fluorescence resonance energy transfer (FRET) (FIG. 6).
The effect of the pre-incubation (12 h, 4° C., rotating incubator) of anti-β1-ECII IgG antibodies of a representative rat with β1-ECII-18AA cyclopeptide mutants (Cys/Ser or Ser/Cys mutations, respectively) was compared with the inhibitory effect of a 3 Cys-containing 25AA Cys/Cys cyclopeptide or with the effect of anti-β1-ECII IgG antibodies not incubated with blocking peptides. The normalized YFP/CFP-ratio of the registered FRET emission signals served to quantify the effect of the cyclopeptide mutants of the present invention in terms of blockade (in percent) of antibody-induced cellular cAMP-production of transiently Epac1-transfected stably β1-AR expressing human embryonic kidney cells (HEK 293-β1 cells). The x-axis in FIG. 6 corresponds to the registration time given in seconds (s).

Substance	blocking capacity (% of blocked versus non-blocked ELISA-reactivity) (anti-β1-ECII antibodies; 4° C.)	blocking-efficiency versus unblocked sera (anti-β1-ECII antibodies; n=6 sera, incubation 12-14 h, 4° C., mean ±SEM (FIG. 27))	blocking efficiency (% of blocked versus non-blocked ELISA reactivity) (anti-β1-ECII antibodies)	blocking capacity (% of blocked versus non-blocked ELISA reactivity) (anti-β1-ECII antibodies)	antibody-titer decrease after 5 injections, compared with untreated immunized animals [1]	number of specific anti-beta1-ECII antibody-secreting cells (ASC) in spleen and bone marrow [2]	decrease in circulating free anti-beta1-ECII antibodies (anti-β1-ECII antibodies; 8-fold molar excess of peptide)	decrease in circulating free anti-beta1-ECII antibodies (anti-β1-ECII antibodies; 20-fold molar excess of peptide)	decrease in circulating free anti-beta1-ECII antibodies (anti-β1-ECII antibodies; 80-fold molar excess of peptide)	inhibition of functional antibody-effects (blocking intracellular cAMP-increases) [3]	blocking effect compared with the 3 Cys-containing β1-ECII-18AA Cys/Cys cyclopeptide (anti-β1-ECII antibodies; IgG-fractions from 12 rats (FIG. 4))	ability to significantly block antibody-binding to the β1-ECII-antigen (anti-β1-ECII antibodies)	blocking of receptor antibodies versus Ser/Cys counterpart or linear 25AA Cys/Cys peptide (anti-β1-ECII antibodies; dose-titration, two to eight-fold molar excess, one representative serum (FIG. 5))	fraction of rat sera blocked by the peptide (anti-β1-ECII antibodies; listed as ECII-18AA Cys/Ser mutant)	fraction of rat sera blocked by the peptide (anti-β1-ECII antibodies; listed as β1-ECII-18AA Cys/Ser mutated cyclopeptide (D-Glu ring closure))	fraction of rat sera blocked by the peptide (anti-β1-ECII antibodies; listed as 18AA Ser/Cys-mutants)	fraction of rat sera blocked by the peptide (anti-β1-ECII antibodies; listed as cyclic ECII-18AA Ser/Cys mutants)
25AA Cys/Cys cyclopeptides: 3 Cys-containing β1-ECII-25AA Cys/Cys cyclopeptide (β1-ECII-CP of WO 2006/103101) (cyclo(ARAESDEARRCYNDPKCCDFVTNRQ); disulfide (positions not given here)) [reference compound]	67±2%	73.4±5.0%	65±2%	72±5%	87.7±2%	significant decrease	–	–	–	–	–	–	–	–	–	–	–
Ala-Asp-Glu-Ala-Arg-Arg-Cys-Tyr-Asn-Asp-Pro-Lys-Cys-Ser-Asp-Phe-Val-Gln (cyclo(ADEARRCYNDPKCSDFVQ); disulfide 7-13 (inferred)) [linear 18AA Cys/Ser peptides, reference compound]	–	–	–	–	4.5±11%	no effect	24%	35%	about 50%	–	–	–	–	–	–	–	–
cyclo(Ala-Arg-Ala-Glu-Ser-Asp-Glu-Ala-Arg-Arg-Cys-Tyr-Asn-Asp-Pro-Lys-Ser-Cys-Asp-Phe-Val-Thr-Asn-Arg-Gln) (cyclo(ARAESDEARRCYNDPKSCDFVTNRQ); disulfide 11-18 (inferred)) [25AA Ser/Cys]	6±2%	–	6±2%	37±7%	–	–	–	–	–	almost no inhibitory effect	–	–	–	–	–	–	–
cyclo(Ala-Asp-Glu-Ala-Arg-Arg-Cys-Tyr-Asn-Asp-Pro-Lys-Cys-Ser-Asp-Phe-Val-DGlu) (cyclo(ADEARRCYNDPKCSDFV[dE]); disulfide 7-13 (inferred))	69±2%	–	69±2%	47±5%	–	–	–	–	–	largely superior to its Ser/Cys counterpart, and even slightly more effective than a 3 Cys-containing 25AA Cys/Cys cyclopeptide	comparable or (in more than half of the sera analyzed n=8/12) was even more effective	able to significantly block	consistently largely superior	> 95%	About 95%	–	–
cyclo(Ala-Asp-Glu-Ala-Arg-Arg-Cys-Tyr-Asn-Asp-Pro-Lys-Ser-Cys-Asp-Phe-Val-DGlu) (cyclo(ADEARRCYNDPKSCDFV[dE]); disulfide 7-14 (inferred)) [18AA Ser/Cys with D-Glu-closure]	1±2%	–	1±2%	33±5%	–	–	–	–	–	almost no inhibitory effect	–	not	–	–	–	about 5%	< 5%
